In experiment [1] the test system is PC-3. Description: In vitro proliferation assay (MTT), PC-3. It is filed as cell-based, human. The note with it: value (SD, n) where given, read-out: PC-3 Prostate (IC50 µM). Put shortly: (§1)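 IC50 values come from absorbance at 570 nm after MTT staining of cells grown with compound for 3 days. Seeding density was 1000 to 2500 cells/well, depending on the line.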

The subject of experiment [2] is MDA-MB-435. Description: In vitro proliferation assay (MTT), MDA-MB-435. It is filed as cell-based, human. The note with it: value (SD, n) where given, read-out: MB-435 Breast (IC50 µM). Put shortly:
as §1

The target in experiment [3] is cdk2/cyclin E (Homo sapiens, UniProt P24941). The experiment in a line: Cyclin-dependent kinase assay, cdk2/cyclin E. The settings on record: CDK2 IC50, nM, GST-pRb substrate, 10 µM ATP.
In experiment [4] the target is cdk4/cyclin D1 (Homo sapiens, UniProt P11802). Description: Cyclin-dependent kinase assay, cdk4/cyclin D1. It is filed as biochemical. The settings on record: cyclin D1/cdk4; GST-pRb substrate, 10 µM ATP.
Experiment [5] deals with cdk1/cyclin B (Homo sapiens, UniProt P06493). The experiment in a line: Cyclin-dependent kinase assay, cdk1/cyclin B. The settings on record: CDK1 IC50, nM, Histone H1, 10 µM ATP.
[6] abbreviates: Homo sapiens, MDA-MB-435, MTT assay.

Our source for the IC50 values is patent EP1377579B1 (Aventis Pharmaceuticals Inc., priority 2000, dated 2002).

Structures can show the parent of a compound that is named as a salt. Where two headings read alike, the source gives them in different places.

As usually defined, the IC50 is the midpoint of a concentration-inhibition curve.

Chain of cdk4/cyclin D1 (P11802 whole entry): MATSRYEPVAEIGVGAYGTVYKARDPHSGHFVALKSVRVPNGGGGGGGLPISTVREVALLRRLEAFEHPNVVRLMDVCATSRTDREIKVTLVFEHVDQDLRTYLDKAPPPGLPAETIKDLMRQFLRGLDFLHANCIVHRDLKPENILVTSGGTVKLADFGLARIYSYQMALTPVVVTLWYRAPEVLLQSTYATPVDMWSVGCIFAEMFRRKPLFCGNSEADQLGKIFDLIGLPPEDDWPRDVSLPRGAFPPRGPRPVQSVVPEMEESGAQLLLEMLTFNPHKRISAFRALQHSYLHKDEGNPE
Chain of cdk4/cyclin D1 (P24385 whole entry partner): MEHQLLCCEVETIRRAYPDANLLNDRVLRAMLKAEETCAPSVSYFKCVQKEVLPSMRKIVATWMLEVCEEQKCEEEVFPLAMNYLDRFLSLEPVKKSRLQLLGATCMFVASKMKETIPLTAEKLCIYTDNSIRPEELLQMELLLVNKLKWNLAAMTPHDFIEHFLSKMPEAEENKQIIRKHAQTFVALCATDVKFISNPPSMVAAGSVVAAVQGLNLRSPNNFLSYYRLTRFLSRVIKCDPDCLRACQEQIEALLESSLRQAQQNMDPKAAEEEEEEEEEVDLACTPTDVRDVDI
Chain of cdk1/cyclin B (P06493 whole entry): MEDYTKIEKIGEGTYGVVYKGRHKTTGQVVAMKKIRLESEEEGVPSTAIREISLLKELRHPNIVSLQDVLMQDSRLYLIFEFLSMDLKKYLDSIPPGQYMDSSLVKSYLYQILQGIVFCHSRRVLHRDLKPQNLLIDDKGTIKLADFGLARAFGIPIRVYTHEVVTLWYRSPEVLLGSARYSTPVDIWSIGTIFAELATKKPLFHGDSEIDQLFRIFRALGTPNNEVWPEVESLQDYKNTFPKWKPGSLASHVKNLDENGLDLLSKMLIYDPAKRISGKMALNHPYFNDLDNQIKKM
Chain of cdk1/cyclin B (P14635 whole entry partner): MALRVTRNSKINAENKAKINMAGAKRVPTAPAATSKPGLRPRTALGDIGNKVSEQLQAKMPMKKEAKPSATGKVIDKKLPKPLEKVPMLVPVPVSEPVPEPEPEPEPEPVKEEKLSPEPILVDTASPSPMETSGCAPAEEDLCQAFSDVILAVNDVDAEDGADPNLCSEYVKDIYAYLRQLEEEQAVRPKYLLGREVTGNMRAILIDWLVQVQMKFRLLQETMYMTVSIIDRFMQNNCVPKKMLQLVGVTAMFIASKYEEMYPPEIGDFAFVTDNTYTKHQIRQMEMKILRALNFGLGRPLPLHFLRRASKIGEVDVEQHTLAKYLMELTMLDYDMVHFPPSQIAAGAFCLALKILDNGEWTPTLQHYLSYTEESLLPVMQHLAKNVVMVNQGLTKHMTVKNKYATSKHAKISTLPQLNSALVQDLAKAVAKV

In the case of `COc1ccc(CC(=O)N2CCC(Nc3nc(N[C@H]4CC[C@H](N)CC4)nc4c3ncn4C3CCCC3)CC2)cc1OC` [compound 32, trans 1-{4-[2-(4-Amino-cyclohexylamino)-9-cyclopentyl-9H-purin-6-ylamino]-piperidin-1-yl}-2-(3,4-dimethoxy-phenyl)-ethanone dihydrochloride], the IC50 was found to be 4.84 µM in experiment [1] (Homo sapiens, PC-3, MTT assay); 5.46 µM in experiment [2] (setting [6]); 53 nM in experiment [3]; 189 nM in experiment [4]; 24 nM in experiment [5].
Taken in the same sequence, the figures for `CN(C)c1cccc2c(S(=O)(=O)N3CCC(Nc4nc(N[C@H]5CC[C@H](N)CC5)nc5c4ncn5C4CCCC4)CC3)cccc12` [compound 141, trans-N^2-(4-Amino-cyclohexyl)-9-cyclopentyl-N^6-[1-(5-dimethylamino-naphthalene-1-sulfonyl)-piperidin-4-yl]-9H-purine-2,6-diamine dihydrochloride] were 1.49 µM, 0.86 µM, 61 nM, 66 nM and 27 nM.
Regarding `N[C@H]1CC[C@H](Nc2nc(NC3CCN(C(=O)Cc4ccccc4)CC3)c3ncn(C4CCCC4)c3n2)CC1` [compound 52, trans-1-{4-[2-(4-Amino-cyclohexylamino)-9-cyclopentyl-9H-purin-6-ylamino]-piperidin-1-yl}-2-phenyl-ethanone dihydrochloride], the IC50 in experiment [1] (Homo sapiens, PC-3, MTT assay) was 0.69 µM; in experiment [2] (setting [6]), 0.87 µM; in experiment [3], 59 nM; in experiment [4] it was 350 nM; in experiment [5], 40 nM.
Turning to `CCCCCc1ccc(C(=O)N2CCC(Nc3nc(N[C@H]4CC[C@H](N)CC4)nc4c3ncn4C3CCCC3)CC2)cc1` [compound 22, trans-1-{4-[2-(4-Amino-cyclohexylamino)-9-cyclopentyl-9H-purin-6-ylamino]-piperidin-1-yl}-1-(4-pentyl-phenyl)-methanone], the IC50 in experiment [1] (Homo sapiens, PC-3, MTT assay) turned out to be 1.86 µM; in experiment [2] (setting [6]), 1.61 µM; in experiment [3] it was 571 nM; in experiment [4], 383 nM; in experiment [5], 182 nM.
As for `N[C@H]1CC[C@H](Nc2nc(NC3CCN(C(=O)NC4CC4c4ccccc4)CC3)c3ncn(C4CCCC4)c3n2)CC1` (mixture of isomers) [compound 156, (±)-trans-4-[2-(4-Amino-cyclohexylamino)-9-cyclopentyl-9H-purin-6-ylamino]-piperidine-1-carboxylic acid (2-phenyl-cyclopropyl)-amide dihydrochloride], the IC50 was determined as 0.39 µM in experiment [1] (Homo sapiens, PC-3, MTT assay); 0.28 µM in experiment [2] (setting [6]); 79 nM in experiment [3]; 1620 nM in experiment [4]; 75 nM in experiment [5].
Consider `N[C@H]1CC[C@H](Nc2nc(NC3CCN(C(=O)Nc4c(F)cccc4C(F)(F)F)CC3)c3ncn(C4CCCC4)c3n2)CC1` [compound 201, trans-4-[2-(4-Amino-cyclohexylamino)-9-cyclopentyl-9H-purin-6-ylamino]-piperidine-1-carboxylic acid (2-fluoro-6-trifluoromethyl-phenyl)-amide dihydrochloride], for which the IC50 in experiment [1] (Homo sapiens, PC-3, MTT assay) amounted to 1.9 µM; in experiment [2] (setting [6]), 1.53 µM; in experiment [3] it was 41 nM; in experiment [4], 986 nM; in experiment [5], 170 nM.
Taken in the same sequence, the figures for `N[C@H]1CC[C@H](Nc2nc(NC3CCN(C(=O)c4cccc([N+](=O)[O-])c4)CC3)c3ncn(C4CCCC4)c3n2)CC1` [compound 26, trans-1-{4-[2-(4-Amino-cyclohexylamino)-9-cyclopentyl-9H-purin-6-ylamino]-piperidin-1-yl}-1-(3-nitro-phenyl)-methanone] were 1.67 µM, 2.18 µM, 78 nM, 564 nM and 31 nM.
`CCOC(=O)NC(=O)N1CCC(Nc2nc(N[C@H]3CC[C@H](N)CC3)nc3c2ncn3C2CCCC2)CC1` [compound 173, trans-(1-{4-[2-(4-Amino-cyclohexylamino)-9-cyclopentyl-9H-purin-6-ylamino]-piperidin-1-yl}-methanoyl)-carbamic acid ethyl ester dihydrochloride]: the IC50 in experiment [1] (Homo sapiens, PC-3, MTT assay) came out at 2.81 µM; in experiment [2] (setting [6]) it was 2.67 µM; in experiment [3], 30 nM; in experiment [4] it was 424 nM; in experiment [5], 18 nM.
Taken in the same sequence, the figures for `N[C@H]1CC[C@H](Nc2nc(NC3CCN(S(=O)(=O)c4cccc(C(=O)O)c4)CC3)c3ncn(C4CCCC4)c3n2)CC1` [compound 135, dihydrochloride] were 4.05 µM, 3.38 µM, 4 nM, 62 nM and 80 nM.
On the same counts, the results for `N[C@H]1CC[C@H](Nc2nc(NC3CCN(C(=O)C(O)c4ccccc4)CC3)c3ncn(C4CCCC4)c3n2)CC1` (mixture of isomers) [compound 50, (±)-trans-1-{4-[2-(4-Amino-cyclohexylamino)-9-cyclopentyl-9H-purin-6-ylamino]-piperidin-1-yl}-2-hydroxy-2-phenyl-ethanone dihydrochloride] are 1.58 µM, 1.67 µM, 44 nM, 206 nM and 43 nM.
Taken in the same sequence, the figures for `CCCCCC(=O)N1CCC(Nc2nc(N[C@H]3CC[C@H](N)CC3)nc3c2ncn3C2CCCC2)CC1` [compound 54, trans-1-{4-[2-(4-Amino-cyclohexylamino)-9-cyclopentyl-9H-purin-6-ylamino]-piperidin-1-yl}-hexan-1-one dihydrochloride] were 0.59 µM, 0.6 µM, 49 nM, 315 nM and 45 nM.
As for `C[C@@H](NC(=O)N1CCC(Nc2nc(N[C@H]3CC[C@H](N)CC3)nc3c2ncn3C2CCCC2)CC1)c1ccccc1` [compound 160, trans-4-[2-(4-Amino-cyclohexylamino)-9-cyclopentyl-9H-purin-6-ylamino]-piperidine-1-carboxylic acid ((R)-1-phenyl-ethyl)-amide dihydrochloride], the IC50 in experiment [1] (Homo sapiens, PC-3, MTT assay) came out at 1.69 µM; in experiment [2] (setting [6]) it was 1.36 µM; in experiment [3], 94 nM; in experiment [4] it was 357 nM; in experiment [5], 85 nM.
On the same counts, the results for `CC(=O)Nc1nc(C)c(S(=O)(=O)N2CCC(Nc3nc(N[C@H]4CC[C@H](N)CC4)nc4c3ncn4C3CCCC3)CC2)s1` [compound 113, trans-N-(5-{4-[2-(4-Amino-cyclohexylamino)-9-cyclopentyl-9H-purin-6-ylamino]-piperidine-1-sulfonyl}-4-methyl-thiazol-2-yl)-acetamide dihydrochloride] are 5.89 µM, 6.54 µM, 7 nM, 39 nM and 18 nM.
As for `C[C@H](NC(=O)N1CCC(Nc2nc(N[C@H]3CC[C@H](N)CC3)nc3c2ncn3C2CCCC2)CC1)c1ccccc1` [compound 161, trans-4-[2-(4-Amino-cyclohexylamino)-9-cyclopentyl-9H-purin-6-ylamino]-piperidine-1-carboxylic acid ((S)-1-phenyl-ethyl)-amide dihydrochloride], the IC50 came to 0.96 µM in experiment [1] (Homo sapiens, PC-3, MTT assay); 1.01 µM in experiment [2] (setting [6]); 78 nM in experiment [3]; 601 nM in experiment [4]; 56 nM in experiment [5].
On the same counts, the results for `N[C@H]1CC[C@H](Nc2nc(NC3CCN(S(=O)(=O)c4ccc(Cl)c(Cl)c4)CC3)c3ncn(C4CCCC4)c3n2)CC1` [compound 138, trans-N^2-(4-Amino-cyclohexyl)-9-cyclopentyl-N^6-[1-(3,4-dichloro-benzenesulfonyl)-piperidin-4-yl]-9H-purine-2,6-diamine dihydrochloride] are 1.16 µM, 0.54 µM, 60 nM, 69 nM and 40 nM.
Taken in the same sequence, the figures for `COCC(=O)N1CCC(Nc2nc(N[C@H]3CC[C@H](N)CC3)nc3c2ncn3C2CCCC2)CC1` [compound 65, trans-1-{4-[2-(4-Amino-cyclohexylamino)-9-cyclopentyl-9H-purin-6-ylamino]-piperidin-1-yl}-2-methoxy-ethanone dihydrochloride] were 3.29 µM, 3.09 µM, 50 nM, 764 nM and 72 nM.
For the molecule `N[C@H]1CC[C@H](Nc2nc(NC3CCN(C(=O)c4cccc(Cl)c4)CC3)c3ncn(C4CCCC4)c3n2)CC1` [compound 72, trans-1-{4-[2-(4-Amino-cyclohexylamino)-9-cyclopentyl-9H-purin-6-ylamino]-piperidin-1-yl}-1-(3-chloro-phenyl)-methanone], the IC50 turned out to be 0.03 µM in experiment [1] (MTT assay); 0.03 µM in experiment [2] (MTT assay); 89 nM in experiment [3]; 864 nM in experiment [4]; 51 nM in experiment [5].
Regarding `C=CCNC(=O)N1CCC(Nc2nc(N[C@H]3CC[C@H](N)CC3)nc3c2ncn3C2CCCC2)CC1` [compound 164, trans-4-[2-(4-Amino-cyclohexylamino)-9-cyclopentyl-9H-purin-6-ylamino]-piperidine-1-carboxylic acid allylamide dihydrochloride], the IC50 in experiment [1] (Homo sapiens, PC-3, MTT assay) amounted to 4.99 µM; in experiment [2] (setting [6]), 5.03 µM; in experiment [3], 86 nM; in experiment [4], 739 nM; in experiment [5], 151 nM.
